Common to all, as to assay type: in vivo
Assay [1] relates to human subject with a premetastatic tumor. The assay is described as follows: Example G: parenteral suspension injected next to a premetastatic tumor. The note with it: 100 mg/ml suspension, approximately 2.0 ml injected beside the tumor twice daily for approximately 30 days. The text has this: The compounds of the invention are useful to prepare compositions for the treatment of ailments and the like. […] In each case the compounds formula I may be substituted for the example compound shown below with similar results. […] The skilled practitioner will appreciate that the examples provide guidance and may be varied based on condition and the patient. A composition for parenteral administration is made comprising: The above ingredients are mixed, forming a suspension. Approximately 2.0 ml of the suspension is administered, via injection, to a human subject with a premetastatic tumor. The injection site juxtaposes the tumor. This dosage is repeated twice daily, for approximately 30 days.

For assay [2], the system named is human subject suffering from rheumatoid arthritis. The experiment in a line: Example A: tablets given orally to a subject suffering from rheumatoid arthritis. The settings on record: tablet with 15 mg compound, three tablets per day orally for 2 years, 60 kg person. The text has this:
The compounds of the invention are useful to prepare compositions for the treatment of ailments and the like. […] In each case the compounds formula I may be substituted for the example compound shown below with similar results. […] The skilled practitioner will appreciate that the examples provide guidance and may be varied based on condition and the patient. A tablet composition for oral administration, according to the present invention, is made comprising: A human subject weighing 60 kg (132 lbs), suffering from rheumatoid arthritis, is treated by a method of this invention. Specifically, for 2 years, a regimen of three tablets per day is administered orally to said subject.

In assay [3] the test system is patient having deep corneal abrasion. The assay is described as follows: Example C: saline-based eye drop applied by a patient having deep corneal abrasion. The settings on record: 5% w/w drop applied to each eye twice a day. An excerpt: The compounds of the invention are useful to prepare compositions for the treatment of ailments and the like. […] In each case the compounds formula I may be substituted for the example compound shown below with similar results. […] The skilled practitioner will appreciate that the examples provide guidance and may be varied based on condition and the patient. A saline-based composition for local administration, according to the present invention, is made comprising: A patient having deep corneal abrasion applies the drop to each eye twice a day.

Assay [4] concerns human subject suffering from osteoarthritis. The assay is described as follows: Example B: capsule given daily to a subject suffering from osteoarthritis. The settings on record: capsule containing 70 mg daily for 5 years, 90 kg person. The text has this: The compounds of the invention are useful to prepare compositions for the treatment of ailments and the like. […] In each case the compounds formula I may be substituted for the example compound shown below with similar results.
The skilled practitioner will appreciate that the examples provide guidance and may be varied based on condition and the patient.
A capsule for oral administration, according to the present invention, is made comprising:
A human subject weighing 90 kg (198 lbs), suffering from osteoarthritis, is treated by a method of this invention. Specifically, for 5 years, a capsule containing 70 mg of the compound of Example 3 is administered daily to said subject.

Assay [5] concerns patient suffering from chemical burns. The experiment in a line: Example D: topical composition applied by a patient suffering from chemical burns. The note with it: 0.20% w/v topical composition at each dressing change (b.i.d.). The text has this: The compounds of the invention are useful to prepare compositions for the treatment of ailments and the like. […] In each case the compounds formula I may be substituted for the example compound shown below with similar results. […] The skilled practitioner will appreciate that the examples provide guidance and may be varied based on condition and the patient. A topical composition for local administration, according to the present invention, is made comprising: A patient suffering from chemical burns applies the composition at each dressing change (b.i.d.).

In assay [6] the test system is asthma sufferer. The experiment in a line: Example E: inhalation aerosol used by an asthma sufferer. The note with it: 5.0% w/v aerosol, 0.01 mL sprayed into the mouth while inhaling. The procedure:
The compounds of the invention are useful to prepare compositions for the treatment of ailments and the like. […] In each case the compounds formula I may be substituted for the example compound shown below with similar results. […] The skilled practitioner will appreciate that the examples provide guidance and may be varied based on condition and the patient. A inhalation aerosol composition, according to the present invention, is made comprising: An asthma sufferer sprays 0.01 mL via a pump actuator into the mouth while inhaling.

SMILES strings stand for the structures.

As for `COc1ccc(S(=O)(=O)N2C[C@@H](O)C[C@H]2C(=O)NO)cc1` [Example 4, (1N)-4-Methoxyphenylsulfonyl-(2S)-N-hydroxycarboxanido-(4S)-hydroxy-pyrrolidine], in assay [1], the “symptoms of the disease after 30 days” value is on record as “symptoms of the disease subside”.

With `COc1ccc(S(=O)(=O)N2C[C@H](Sc3nccn3C)C[C@@H]2C(=O)NO)cc1` [Example 9, (1N)-4-Methoxyphenylsulfonyl-(2R)-N-hydroxycarboxado-(4R)-[(1N)-methyl-2-mercaptoimidazyl]-pyrrolidine], the “findings on examination at the end of the treatment period (inflammation, mobility, pain)” value in assay [2] is “reduced inflammation, and improved mobility without concomitant pain”.

In the case of `COc1ccc(S(=O)(=O)N2C[C@@H](Oc3ccccc3)C[C@@H]2C(=O)NO)cc1` [Example 13, (1N)-4-Methoxyphenylsulfonyl-(2R)-N-hydroxycarboxamido-(4S)-phenoxypyrrolidine], in assay [3], the corneal healing entry was “Healing is speeded, with no visual sequelae”.

Take `COc1ccc(S(=O)(=O)N2C[C@H](O)C[C@H]2C(=O)NO)cc1` [Example 3, (1N)-4-Methoxyphenylsulfonyl-(2S)-N-hydroxycarboxanido-(4R)-hydroxypyrrolidine]: the “orthoscopy finding at the end of the treatment period (erosion/fibrillation of the articular cartilage)” value in assay [4] is “no further advancement of erosion/fibrillation of the articular cartilage”. The scarring result in assay [5] is given as “Scarring is substantially diminished”.

`COc1ccc(S(=O)(=O)N2C[C@@H](O)C[C@@H]2C(=O)NO)cc1` [Example 2, (1N)-4-Methoxyphenylsulfonyl-(2R)-N-hydroxycarboxamido-(4S)-hydroxypyrrolidine]: the asthma symptoms result in assay [6] is on record as “Asthma symptoms are diminished”.

The values are drawn from patent publication US6872742B2, “Substituted cyclic amine metalloprotease inhibitors” (The Procter & Gamble Company, priority 1996, dated 2005).
